Measurements reported in ChEMBL document CHEMBL5728361, “(S)-2-(1-cyclopropylethyl)-5-(4-methyl-2-((6-(2-oxopyrrolidin-1-yl)pyridin-2-yl)amino) thiazol-5-yl)-7-(methylsulfonyl)isoindolin-1-one as a phosphatidylinositol 3-kinase inhibitor” (2021).

Key:
[1] = (§1) Enzymatic Activity Assay : The activity of recombinant human PI3Kγ ((aa144-1102)-6His) and PI3Kα, β, δ (6-His(p110-p85α)) was determined by measuring the ADP level after phosphorylation of DiC8-PIP2 using a commercially available ADP-Glo™ kit from Promega. The assay was carried out in white low volume 384 well plates in a final volume of 14 μl at R.T. The assay conditions contained the following: 50 mM Tris buffer pH 7.4, 2.1 mM DTT, 3 mM MgCl2, 0.05% CHAPS, 20 μM ATP, 80 μM DiC8-PIP2 and 1.2 nM PI3Kα, β, γ or 0.6 nM PI3Kδ. Potential inhibitors were made up in DMSO and then diluted in the assay to give a final concentration of not exceeding 1% (v/v) DMSO. […] Routinely, inhibitors were pre-incubated with 3 μl of enzyme for 15 min prior to the addition of 2 μl substrate mixture for a further 60 min enzyme reaction. The phosphorylation was stopped with the addition of 3 μl ADP-Glo™ reagent (stop solution) followed by a 40 min incubation. Prior to detection 6 μl of ADP-Glo™ Kinase Detection Reagent was added and the plates were read in a micro plate reader using a Luminescence filter. All additions were followed by a short centrifugation step.
[2] = target: Phosphatidylinositol 4,5-bisphosphate 3-kinase catalytic subunit beta isoform (Homo sapiens, UniProt P42338); test: as §1
[3] = target: T1, Phosphatidylinositol 4,5-bisphosphate 3-kinase catalytic subunit delta isoform (Homo sapiens, UniProt O00329); test: as §1
T1 sequence (O00329 whole entry): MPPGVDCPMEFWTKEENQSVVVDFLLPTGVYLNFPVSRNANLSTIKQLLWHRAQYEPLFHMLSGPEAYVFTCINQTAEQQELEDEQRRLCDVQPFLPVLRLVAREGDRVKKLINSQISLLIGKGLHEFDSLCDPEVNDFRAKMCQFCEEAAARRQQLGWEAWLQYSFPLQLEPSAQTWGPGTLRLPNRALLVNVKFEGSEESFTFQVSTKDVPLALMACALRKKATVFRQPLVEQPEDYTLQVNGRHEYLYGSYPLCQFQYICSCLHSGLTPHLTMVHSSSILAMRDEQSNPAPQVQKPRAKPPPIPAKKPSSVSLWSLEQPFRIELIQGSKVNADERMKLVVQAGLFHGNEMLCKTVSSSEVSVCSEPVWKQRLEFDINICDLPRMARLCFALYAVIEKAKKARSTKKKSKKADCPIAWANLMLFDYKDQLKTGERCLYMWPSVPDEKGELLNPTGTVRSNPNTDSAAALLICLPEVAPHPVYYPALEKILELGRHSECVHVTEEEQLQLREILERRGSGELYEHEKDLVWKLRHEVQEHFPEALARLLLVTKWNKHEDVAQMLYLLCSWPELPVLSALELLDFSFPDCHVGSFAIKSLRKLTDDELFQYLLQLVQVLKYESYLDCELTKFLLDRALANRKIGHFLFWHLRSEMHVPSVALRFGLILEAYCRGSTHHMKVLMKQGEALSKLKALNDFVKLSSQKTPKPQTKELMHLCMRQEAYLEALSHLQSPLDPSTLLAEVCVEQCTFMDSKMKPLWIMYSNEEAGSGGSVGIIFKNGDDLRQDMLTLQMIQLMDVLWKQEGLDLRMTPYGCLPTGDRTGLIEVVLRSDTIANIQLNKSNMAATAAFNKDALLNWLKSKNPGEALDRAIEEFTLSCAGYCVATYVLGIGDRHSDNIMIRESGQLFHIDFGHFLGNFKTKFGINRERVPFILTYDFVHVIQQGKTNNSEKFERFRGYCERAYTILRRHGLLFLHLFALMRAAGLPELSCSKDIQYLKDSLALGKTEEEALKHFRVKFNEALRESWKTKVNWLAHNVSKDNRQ

[4] = target: Phosphatidylinositol 4,5-bisphosphate 3-kinase catalytic subunit alpha isoform (Homo sapiens, UniProt P42336); test: as §1
Sequence of Phosphatidylinositol 4,5-bisphosphate 3-kinase catalytic subunit alpha isoform (P42336 whole entry, canonical isoform): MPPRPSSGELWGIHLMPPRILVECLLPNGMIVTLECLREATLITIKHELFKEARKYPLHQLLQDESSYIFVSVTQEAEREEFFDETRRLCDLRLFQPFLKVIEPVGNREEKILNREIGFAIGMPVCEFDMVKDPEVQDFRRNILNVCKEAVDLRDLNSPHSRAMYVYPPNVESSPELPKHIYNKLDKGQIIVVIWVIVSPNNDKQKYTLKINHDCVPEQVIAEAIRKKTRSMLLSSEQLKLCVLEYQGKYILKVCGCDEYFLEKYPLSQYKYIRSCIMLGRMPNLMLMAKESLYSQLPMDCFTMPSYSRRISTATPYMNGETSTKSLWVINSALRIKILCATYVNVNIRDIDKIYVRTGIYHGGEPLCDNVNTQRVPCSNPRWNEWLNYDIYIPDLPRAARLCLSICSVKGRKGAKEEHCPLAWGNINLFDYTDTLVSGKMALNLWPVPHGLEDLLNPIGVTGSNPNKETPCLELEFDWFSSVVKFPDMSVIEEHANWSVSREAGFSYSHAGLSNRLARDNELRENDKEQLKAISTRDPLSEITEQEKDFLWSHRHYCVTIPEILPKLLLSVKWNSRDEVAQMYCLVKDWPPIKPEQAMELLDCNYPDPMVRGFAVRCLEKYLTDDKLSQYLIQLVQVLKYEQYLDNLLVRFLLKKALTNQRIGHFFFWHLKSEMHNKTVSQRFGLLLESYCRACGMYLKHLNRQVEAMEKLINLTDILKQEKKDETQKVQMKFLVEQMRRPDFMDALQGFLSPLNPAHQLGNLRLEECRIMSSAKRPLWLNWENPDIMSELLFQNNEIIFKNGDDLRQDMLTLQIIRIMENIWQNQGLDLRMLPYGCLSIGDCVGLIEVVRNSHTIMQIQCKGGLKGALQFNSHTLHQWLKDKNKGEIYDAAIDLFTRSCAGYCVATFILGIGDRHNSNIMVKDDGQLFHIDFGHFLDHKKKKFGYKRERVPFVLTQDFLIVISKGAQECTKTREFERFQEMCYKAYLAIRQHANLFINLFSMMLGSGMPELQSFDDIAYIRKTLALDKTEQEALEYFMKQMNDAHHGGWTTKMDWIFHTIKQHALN

Sequence of Phosphatidylinositol 4,5-bisphosphate 3-kinase catalytic subunit beta isoform (P42338 whole entry, canonical isoform): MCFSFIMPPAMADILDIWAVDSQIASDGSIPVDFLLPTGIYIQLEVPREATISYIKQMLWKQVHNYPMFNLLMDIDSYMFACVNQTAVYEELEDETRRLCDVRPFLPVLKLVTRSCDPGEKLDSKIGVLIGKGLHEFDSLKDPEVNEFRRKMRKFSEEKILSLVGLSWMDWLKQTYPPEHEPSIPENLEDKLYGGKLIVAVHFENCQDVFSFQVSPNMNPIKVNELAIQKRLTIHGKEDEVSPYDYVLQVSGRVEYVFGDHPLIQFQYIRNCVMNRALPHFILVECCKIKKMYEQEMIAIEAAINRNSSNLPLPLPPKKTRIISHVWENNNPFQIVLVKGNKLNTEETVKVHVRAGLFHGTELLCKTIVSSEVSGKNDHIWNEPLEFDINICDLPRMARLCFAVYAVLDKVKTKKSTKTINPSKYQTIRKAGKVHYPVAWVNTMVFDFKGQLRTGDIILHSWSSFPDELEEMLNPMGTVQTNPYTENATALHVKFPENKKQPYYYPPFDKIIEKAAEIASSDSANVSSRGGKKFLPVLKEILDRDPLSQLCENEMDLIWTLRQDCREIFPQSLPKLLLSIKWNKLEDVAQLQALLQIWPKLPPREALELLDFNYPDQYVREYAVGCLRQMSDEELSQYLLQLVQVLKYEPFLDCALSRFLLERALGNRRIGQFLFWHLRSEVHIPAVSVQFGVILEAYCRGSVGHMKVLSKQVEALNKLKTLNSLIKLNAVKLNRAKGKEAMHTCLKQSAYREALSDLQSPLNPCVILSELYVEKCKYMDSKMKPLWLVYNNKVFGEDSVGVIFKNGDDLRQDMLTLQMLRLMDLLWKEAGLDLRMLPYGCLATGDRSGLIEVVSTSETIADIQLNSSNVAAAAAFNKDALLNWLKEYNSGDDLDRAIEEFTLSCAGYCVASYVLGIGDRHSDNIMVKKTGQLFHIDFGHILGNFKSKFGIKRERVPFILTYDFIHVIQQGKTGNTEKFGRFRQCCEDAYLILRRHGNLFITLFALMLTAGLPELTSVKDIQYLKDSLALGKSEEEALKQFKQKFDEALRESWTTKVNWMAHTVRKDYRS

Compound `Cc1nc(Nc2cccc(N3CCCC3=O)c2)sc1-c1cc2c(c(S(C)(=O)=O)c1)C(=O)N([C@@H](C)C1CC1)C2` has an IC50 [1] of 0.9 nM.
`CC[C@H](C)N1Cc2cc(-c3sc(Nc4cccc(N5CCCOC5=O)n4)nc3C)cc(S(=O)(=O)NC)c2C1=O` showed an IC50 [2] of 459 nM, an IC50 [3] of 2.2 nM and an IC50 [4] of 80 nM.
